Laboratory results reported in patent US7235547B2, “Pharmaceutical composition comprising an AChE inhibitor and a mGluR2 antagonist” (priority 2003, dated 2007).
Structures can show the parent of a compound that is named as a salt.

Tested on: scopolamine-induced working memory deficit
Assay: scopolamine-induced working memory deficit in the delayed match to position (DMTP) task in rats
Type: in vivo, Male Lister Hooded rats
Conditions: for effect on the scopolamine deficit in DMTP task (percent correct responses): combination: Compound 23 1 mg/kg p.o. 180 min prior to testing, donepezil hydrochloride 1 mg/kg p.o. 145 min later, scopolamine 0.06 mg/kg s.c. 5 min later
Procedure: Except for during testing, water was available ad libitum at all times. The rats were tested in Med Associates operant chambers, equipped with 2 retractable levers positioned 7.5 cm either side of a central food tray. A single stimulus light (cue light) was positioned above each lever. Aluminum barriers (5.5 cm chamber extension) were fitted within the chamber to separate each lever from the food magazine. The chambers were controlled by Kestrel software (Conclusive Solutions, Harlow, UK) operating on an IBM compatible PC.
Rats were initially trained to lever press for a food reward (45 mg Formula ‘P’ pellet, Noyes, N.H.) on a continuous reinforcement (CRF) schedule with each lever presented singly an equal number of times (total 96 trials). On acquiring this behaviour the animals were next trained to make a matching response. Each trial consisted of a single lever being inserted into the chamber and the illumination of the appropriate stimulus light (sample stage). The rat was required to press the sample lever, which then immediately retracted. […] If the animal pressed the other lever, it was recorded as an incorrect response and was unrewarded. […] The next trial was signalled by illumination of the house light for a 5 s period, after which the sample lever was extended. The number of such trials per session was 96.
Initially, the delay between the sample and choice stage was 1 s after the first magazine nose poke. Once the animals had learned the matching rule (≧90% correct), the delay period was increased to 1, 2 and 4 s (32 trials per delay), up to a final level of 1, 2, 4, 8, 16, 24s. Sixteen trials were run at each delay. […] The parameters measured include % correct (total no. correct/(total no. correct+incorrect)×100) both for the total session and for each delay interval. Percent correct responses at each delay interval were analysed using an analysis of variance (ANOVA) with repeated measures on Treatment and Delay. Total percent correct responses were analysed using an ANOVA with repeated measures on Treatment. Post hoc tests were conducted by Newman-Keuls test. Statistical significance was accepted at P<0.05.
The experiment was conducted using a repeated measures design with each animal receiving each treatment according to a counterbalanced design. Animals were run 5 days/-week, with drug treatment on 2 test days per week, separated by at least 2 days. […] Scopolamine hydrobromide was dissolved in saline solution and was administered s.c. using an injection volume of 1 ml/kg.

Row | Compound | effect on the scopolamine deficit in DMTP task (percent correct responses) | total correct responses collapsed over the delay intervals (scopolamine 0.06 mg/kg s.c.) | percent correct responses (per delay interval) (scopolamine 0.06 mg/kg s.c., delays 1-24 s)
1 | COc1cc2c(cc1OC)C(=O)C(CC1CCN(Cc3ccccc3)CC1)C2 (stereo not shown) [donepezil hydrochloride] | reversal of the scopolamine deficit | – | –
2 | Cc1cc(-c2cccc(C3=Nc4cc(C)c(C(F)(F)F)cc4NC(=O)C3)c2)cc(C)n1 [Compound 23, 4-[3-(2,6-dimethyl-pyridin-4-yl)-phenyl]-7-methyl-8-trifluoromethyl-1,3-dihydro benzo[b][1,4]diazepin-2-one] | reversal of the scopolamine deficit | – | –
3 | CN1[C@@H]2C[C@@H](OC(=O)[C@H](CO)c3ccccc3)C[C@H]1[C@@H]1O[C@@H]12 [Scopolamine, Scopolamine hydrobromide] | – | significant reduction | significant delay-dependent reduction
